Patent publication US6875761B2 (Eisai Co., Ltd., priority 1997, dated 2005)
Counter-ions that a name gives are not always drawn.

Structure (SMILES)	melting point
CCN1CCN(c2nc(-c3cccc(OC)c3OC)cc3ccccc23)CC1 (as salt: hydrochloride)	122 to 123 °C
CCN1CCN(c2nc(-c3csc(C4=CCOCC4)c3)cc3ccccc23)CC1 (as salt: hydrochloride)	190 to 193 °C
CCN1CCN(c2nc(-c3ccc(OC)cc3)cc3c(C)cccc23)CC1 (as salt: hydrochloride)	249 to 253 °C
CCN1CCN(c2nc(-c3ccc(OC)cc3)cc3cc(OC)ccc23)CC1 (as salt: hydrochloride)	218 to 220 °C
CCN1CCN(c2nc(-c3ccc(OCCO)cc3)cc3ccc(F)cc23)CC1 (as salt: hydrochloride)	225 to 229 °C
CCN1CCN(c2nc(-c3ccccc3)cc3ccc(OC)cc23)CC1 (as salt: hydrochloride)	130 to 132 °C
CCN1CCN(c2nc(-c3ccc(OC)cc3)cc3cccc(OC)c23)CC1 (as salt: hydrochloride)	237 to 241 °C
CCCN1CCN(c2nc(-c3ccc(OC)cc3)cc3ccccc23)CC1 (as salt: hydrochloride)	220 to 226 °C
CCN1CCN(c2nc(-c3ccc(O)cc3)cc3sccc23)CC1 (as salt: hydrochloride)	173 to 175 °C
CCCCc1ccc(-c2cc3ccccc3c(N3CCN(CC)CC3)n2)cc1 (as salt: hydrochloride)	190 to 192 °C (dec.)
CCN1CCN(c2nc(-c3ccc(OCCO)c(OCCO)c3)cc3ccccc23)CC1 (as salt: hydrochloride)	130 to 132 °C
CCN1CCN(c2nc(-c3ccc(C(=O)NC)cc3)cc3ccsc23)CC1 (as salt: hydrochloride)	150.5 to 152 °C
COc1ccc(-c2cc3ccccc3c(N3CCN(C)CC3)n2)cc1 (as salt: hydrochloride) [Example 2, 1-(1-methylpiperazin-4-yl)-3-(4-methoxyphenyl)isoquinoline]	134 to 136 °C
CN1CCN(c2nc(-c3ccc(OCCO)cc3)cc3ccccc23)CC1 (as salt: hydrochloride) [Example 3, 1-(1-methylpiperazin-4-yl)-3-[4-(2-hydroxyethoxy)phenyl]isoquinoline]	131 to 144 °C
CCC(F)c1ccc(-c2cc3ccccc3c(N3CCN(CC)CC3)n2)cc1 (stereo not drawn) (as salt: hydrochloride) [Example 5, 1-(4-ethylpiperazin-1-yl)-3-[4-(1-fluoropropyl)phenyl]isoquinoline Hydrochloride]	147 to 149 °C
CCN1CCN(c2nc(-c3cccc(OC)c3)cc3ccccc23)CC1 (as salt: hydrochloride) [Example 9, 1-(4-ethylpiperazin-1-yl)-3-(3-methoxyphenyl)isoquinone Dihydrochloride]	108 to 110 °C
CCN1CCN(c2nc(-c3ccc(OC)cc3OC)cc3ccccc23)CC1 (as salt: hydrochloride) [Example 12, 3-(2,4-dimethoxyphenyl)-1-(4-ethylpiperazin-1-yl)isoquinolin Dihydrochloride]	145 to 148 °C
CCN1CCN(c2nc(-c3ccc(OC)c(OC)c3)cc3ccccc23)CC1 (as salt: hydrochloride) [Example 14, 3-(3,4-dimethoxyphenyl)-1-(4-ethylpiperazin-1-yl)isoquinoline Dihydrochloride]	125 to 126.5 °C
CCN1CCN(c2nc(-c3cc(OC)cc(OC)c3)cc3ccccc23)CC1 (as salt: hydrochloride) [Example 15, 3-(3,5-dimethoxyphenyl)-1-(4-ethylpiperazin-1-yl)isoquinoline Dihydrochloride]	121 to 123 °C
CCN1CCN(c2nc(-c3ccc(CO)cc3)cc3ccccc23)CC1 (as salt: hydrochloride) [Example 17, 1-(4-ethylpiperazin-1-yl)-3-(4-hydroxymethylphenyl)isoquinoline hydrochloride]	145 to 147 °C
CCN1CCN(c2nc(-c3ccccc3OCCO)cc3ccccc23)CC1 (as salt: hydrochloride) [Example 18, 3-[2-(2-hydroxyethoxy)phenyl]-1-(4-ethylpiperazin-1-yl)isoquinoline hydrochloride]	158 to 160 °C

Structure (SMILES)	melting point
CCC(O)c1ccc(-c2cc3ccccc3c(N3CCN(CC)CC3)n2)cc1 (stereo not drawn) (as salt: hydrochloride) [Example 19, 1-(4-ethylpiperazin-1-yl)-3-[4-(1-hydroxypropyl)phenyl]isoquinoline hydrochloride]	143 to 144 °C
CCN1CCN(c2nc(-c3ccc(CCCO)cc3)cc3ccccc23)CC1 (as salt: hydrochloride) [Example 20, 1-(4-ethylpiperazin-1-yl)-3-[4-(3-hydroxypropyl)phenyl]isoquinoline hydrochloride]	116 to 119 °C
CCN1CCN(c2nc(-c3ccc(CCCCO)cc3)cc3ccccc23)CC1 (as salt: hydrochloride) [Example 23, 3-[4-(4-hydroxybutyl)phenyl]-1-(4-ethylpiperazin-1-yl)isoquinoline hydrochloride]	140 to 144 °C
CCN1CCN(c2nc(-c3ccc(C(O)CCO)cc3)cc3ccccc23)CC1 (stereo not drawn) (as salt: hydrochloride) [Example 24, 3-[4-(1,3-dihydroxypropyl)phenyl]-1-(4-ethylpiperazin-1-yl)isoquinoline hydrochloride]	145 to 147 °C
CCN1CCN(c2nc(-c3ccc(C(O)CC(C)(C)O)cc3)cc3ccccc23)CC1 (stereo not drawn) (as salt: hydrochloride) [Example 25, 3-[4-(1,3-dihydroxy-3-methylbutyl)phenyl]-1-(4-ethylpiperazin-1-yl)isoquinoline]	190 to 192 °C
CCN1CCN(c2nc(-c3ccc(C(CC(C)O)OC)cc3)cc3ccccc23)CC1 (stereo not drawn) (as salt: hydrochloride) [Example 26, 3-[4-(3-hydroxy-1-methoxybutyl)phenyl]-1-(4-ethylpiperazin-1-yl)isoquinoline]	171 to 174 °C
CCN1CCN(c2nc(-c3ccc(C(F)CCO)cc3)cc3ccccc23)CC1 (stereo not drawn) (as salt: hydrochloride) [Example 27, 1-(1-Ethylpiperazin-4-yl)-3-[4-(3-hydroxy-1-fluoropropyl)phenyl]isoquinoline]	141 to 146 °C
CCN1CCN(c2nc(-c3ccc(CO)c(F)c3)cc3ccccc23)CC1 (as salt: hydrochloride) [Example 28, 1-(4-ethylpiperazin-1-yl)-3-[4-(4-hydroxymethyl-3-fluoro)phenyl]isoquinoline hydrochloride]	228 °C (dec.)
CCN1CCN(c2nc(-c3ccc(CCCO)c(F)c3)cc3ccccc23)CC1 (as salt: hydrochloride) [Example 29]	126 to 127 °C (dec.)
CCN1CCN(c2nc(-c3ccc(CCCO)c(Cl)c3)cc3ccccc23)CC1 (as salt: hydrochloride) [Example 30, 3-[3-chloro-4-(3-hydroxypropyl)phenyl]-1-(4-ethylpiperazin-1-yl)isoquinoline hydrochloride]	123 to 124 °C
CCN1CCN(c2nc(-c3ccc(CCCO)c(OC)c3)cc3ccccc23)CC1 (as salt: hydrochloride) [Example 33, 1-(4-ethylpiperazin-1-yl)-3-[4-(3-hydroxypropyl)-3-methoxyphenyl]isoquinoline hydrochloride]	123 to 124 °C
CCN1CCN(c2nc(-c3ccc(OC)c(CCCO)c3)cc3ccccc23)CC1 (as salt: hydrochloride) [Example 34, 3-[3-(3-hydroxypropyl)-4-methoxyphenyl]-1-(4-ethylpiperazin-1-yl)isoquinoline hydrochloride]	157 to 160 °C
CCN1CCN(c2nc(-c3ccc(OC)c(CCCCO)c3)cc3ccccc23)CC1 (as salt: hydrochloride) [Example 35, 3-[3-(4-hydroxybutyl)-4-methoxyphenyl]-1-(4-ethylpiperazin-1-yl)isoquinoline hydrochloride]	128 to 132 °C
CCN1CCN(c2nc(-c3ccc(OCCO)cc3)cc3ccccc23)CC1 (as salt: hydrochloride) [Example 36, 1-(4-ethylpiperazin-1-yl)-3-[4-(2-hydroxyethoxy)phenyl]isoquinoline dihydrochloride]	127 to 129 °C
CCN1CCN(c2nc(-c3cc(OCCO)cc(OCCO)c3)cc3ccccc23)CC1 (as salt: hydrochloride) [Example 38, 3-[3,5-di(2-hydroxyethoxy)phenyl]-1-(4-ethylpiperazin-1-yl)isoquinoline hydrochloride]	232 to 234 °C
CCN1CCN(c2nc(-c3ccc(OCCO)c(Cl)c3)cc3ccccc23)CC1 (as salt: hydrochloride) [Example 39, 3-[3-chloro-4-(2-hydroxyethoxy)phenyl]-1-(4-ethylpiperazin-1-yl)isoquinoline hydrochloride]	138 to 140 °C
CCN1CCN(c2nc(-c3ccc(OCCO)c(C)c3)cc3ccccc23)CC1 (as salt: hydrochloride) [Example 40, 3-[3-methyl-4-(2-hydroxyethoxy)phenyl]-1-(4-ethylpiperazin-1-yl)isoquinoline hydrochloride]	133 to 136 °C
CCN1CCN(c2nc(-c3ccc(OCCO)c(C(C)C)c3)cc3ccccc23)CC1 (as salt: hydrochloride) [Example 41, 3-[3-isopropyl-4-(2-hydroxyethoxy)phenyl]-1-(4-ethylpiperazin-1-yl)isoquinoline hydrochloride]	248 to 250 °C (dec.)
CCN1CCN(c2nc(-c3ccc(OCCOC)cc3)cc3ccccc23)CC1 (as salt: hydrochloride) [Example 42, 1-(4-ethylpiperazin-1-yl)-3-[4-(2-methoxyethoxy)phenyl]isoquinoline dihydrochloride]	184.5 to 185 °C (dec.)
CCN1CCN(c2nc(-c3ccc(OCCOC)c(OCCOC)c3)cc3ccccc23)CC1 (as salt: hydrochloride) [Example 43, 3-[3,4-Di(2-Methoxyethoxy)Phenyl]-1-(4-Ethylpiperazin-1-Yl)Isoquinoline Hydrochloride]	143 to 144 °C
CCN1CCN(c2nc(-c3ccc(COCCO)cc3)cc3ccccc23)CC1 (as salt: hydrochloride) [Example 44, 3-[4-(2-Hydroxyethoxylmethylphenyl]-1-(4-ethylpiperazin-1-Yl)Isoquinoline Hydrochloride]	129 to 131 °C
